Patent US20080153827A1, “Method for the Treatment or Prevention of Cardiac Hypertrophy” (priority 2004, published 2008)

Key:
Format in all cases: in vivo, rat
[1] = tested on: Dahl salt-sensitive rats (SS/JrHsd) on high salt diet; test: Echocardiography: interventricular septum (IVS) wall thickness; details: 3.5 weeks, FIG. 4
Method: 6-week-old male Dahl salt-sensitive rats (SS/JrHsd) received the following diet and drug regimens: Dahl salt-sensitive rats on low salt diet (1), on high salt diet (2), on high salt diet treated with 10 mg/l of levosimendan in drinking water (3), on high salt diet treated with 1 mg/l of levosimendan in drinking water (4) and on high salt diet treated with 0.5 mg/kg of the active metabolite (II) (OR-1896) of levosimendan in drinking water (5). High salt diet was produced by adding NaCl to commercial low salt diet. After 3.5 weeks transthoracic echocardiography was performed using a Toshiba Ultrasound System and a 15 MHz linear transducer under light isoflurane anesthesia. Using two-dimensional imaging, a short axis view of the left ventricle at the level of the papillary muscles was obtained and the two-dimensionally guided M-mode recording through the anterior and posterior walls of the left ventricle was obtained.

[2] = tested on: Dahl salt-sensitive rats (SS/JrHsd) on high salt diet; test: Systolic blood pressure by tail cuff in Dahl salt-sensitive rats; details: data not shown
Method: (§1) 6-week-old male Dahl salt-sensitive rats (SS/JrHsd) received the following diet and drug regimens for 7 weeks: 1) Dahl SS controls on high salt diet, 2) Dahl SS rats on high salt diet+high-dose levosimendan (10 mg/l of levosimendan in drinking water), 3) Dahl SS rats on high salt diet+low-dose levosimendan (1 mg/l of levosimendan in drinking water) and 4) Dahl SS controls on low salt diet. High salt diet was produced by adding NaCl to commercial low salt diet. The consumption of drinking water and food as well as the body weight and general health of the animals were monitored. Systolic blood pressure was measured by using a tail cuff blood pressure at week 3.5 and week 7. At the end the study the hearts was excised, washed with ice-cold saline, blotted dry and weighed.

[3] = tested on: Myocardial SERCA2 and NCX expressions; test: Myocardial SERCA2/NCX protein ratio by Western blot; details: both doses (10 mg/l and 1 mg/l in drinking water), 7 weeks, high salt diet; FIG. 2
Method: as §1
Myocardial SERCA2 and NCX expressions were determined by Western blot analysis using standard procedure. Myocardial samples were homogenized in extraction buffer and protease inhibitor. Myocardial samples (15 μg protein per lane) were electrophoretically separated by SDS-PAGE (8% Acryl amide). The proteins were transferred to a PVDF membrane by semi-dry blotting in electrophoresis device. […] The films were scanned in a densitometer and a semi-quantitative measurement of the relative intensity of each protein band was performed using the “GeneSnap”-software program.

[4] = tested on: Dahl salt-sensitive rats (SS/JrHsd) on high salt diet; test: Heart weight/body weight ratio in Dahl salt-sensitive rats on high salt diet; details: both doses (10 mg/l and 1 mg/l in drinking water), 7 weeks, FIG. 1
Method: as §1

[5] = tested on: atrial natriuretic peptide (ANP) mRNA; test: Myocardial atrial natriuretic peptide (ANP) mRNA expression by quantitative real time PCR; details: high dose (10 mg/l in drinking water), 7 weeks, high salt diet; FIG. 3
Method: as §1, with “At the end the study the hearts was excised, washed with ice-cold saline, blotted dry and weighed.” left out
Total RNA from the rat hearts were collected, treated with DNAse 1 and reverse transcribed to cDNA by incubation of 50 min in 45° C. with presence of reverse transcription enzyme (Enhanced avian HS RT-PCR kit, Sigma Chemicals Co.). 1 μl of cDNA was subjected to a quantitative real time polymerase chain reaction by Lightcycler instrument (Roche Diagnostics) for detection of ANP and GAPDH mRNAs. […] After amplification the quality of PCR products were analyzed with the melting step consisting of heating to 95° C., cooling to annealing temperature for 15 seconds, and finally a slow rise in temperature to 95° C. with a continuous acquisition of fluorescence decline. […]

SMILES	Interventricular septum (IVS) wall thickness ([1]; 0.5 mg/kg in drinking water)	blood pressure ([2]; high-dose (10 mg/l in drinking water))	blood pressure ([2]; low-dose (1 mg/l in drinking water))	Interventricular septum (IVS) wall thickness ([1]; 10 mg/l and 1 mg/l in drinking water)	myocardial SERCA2-to-NCX-ratio [3]	development of cardiac hypertrophy measured as heart weight-to-body weight-ratio [4]	myocardial ANP mRNA expression [5]
CC(=O)Nc1ccc(C2=NNC(=O)C[C@H]2C)cc1 [active metabolite (II), (R)-N-[4-(1,4,5,6-tetrahydro-4-methyl-6-oxo-3-pyridazinyl)phenyl]acetamide]	significantly reduce the increased heart wall thickness	–	–	–	–	–	–
CC1CC(=O)NN=C1c1ccc(NN=C(C#N)C#N)cc1 (single isomer, unassigned; (-)) [Levosimendan, (−)-enantiomer of [[4-(1,4,5,6-tetrahydro-4-methyl-6-oxo-3-pyridazinyl)phenyl]hydrazono]propanedinitrile]	–	produced a transient decrease in blood pressure	did not influence blood pressure	significantly reduce the increased heart wall thickness	increased SERCA2-to-NCX-ratio in the heart	equally prevented the development of cardiac hypertrophy	decrease ANP mRNA expression to levels found in low salt diet controls
